In patent US20140364493A1, “METHOD OF INHIBITING REMNANT LIPOPROTEIN PRODUCTION” (Japan Tobacco Inc., priority 2003, published 2014):

What was measured:
[1] = tested on: remnant lipoprotein production in plasma of healthy subject; assay: In vitro effect on remnant lipoprotein production in plasma (RLP-cholesterol JIMRO II); assay type: biochemical, human; settings: 37° C.
Protocol: Compound A, Compound B, Compound C and Compound D were previously dissolved in dimethyl sulfoxide (DMSO). Plasma (200 μL) of healthy subject, and a solution (2 μL) of each compound in DMSO or DMSO (2 μL) were added into a microtube. On the other hand, a monoclonal antibody against human CETP was diluted with physiological saline and added into a microtube together with plasma (190 μL) of healthy subject and a diluted solution (10 μL) of the monoclonal antibody or physiological saline (10 μL). […] After ice-cooling, the cholesterol amount in the remnant fraction was measured using “RLP-cholesterol “JIMRO II”” (manufactured by Japan Immunoresearch Laboratories Co., Ltd.). The difference in the measured values from incubation of solvent alone at 4° C. and 37° C., namely, an increase in the remnant cholesterol was taken as a 100% production amount of remnant lipoprotein, and the percent of decrease in the measured values of incubation at 37° C. with the addition of each compound or the antibody was taken as percent inhibition of remnant lipoprotein production.

[2] = tested on: cholesteryl ester transfer from donor lipoprotein to remnant lipoprotein; assay: Cholesteryl ester transfer from donor lipoprotein ([3H]CE-HDL3) to remnant lipoprotein fraction in plasma; assay type: biochemical, human; settings: [3H]CE-HDL3-containing plasma, 37° C.
Protocol: (§1) Potassium bromide (KBr) was added to plasma (40 mL) of healthy subject and the mixture was adjusted to have a specific density d=1.125 g/mL. The mixture was subjected to density gradient centrifugation (227,000×g, 4° C., 17 hr) and a fraction showing a specific density of d>1.125 g/mL (HDL3 fraction) was harvested. The obtained fraction was dialyzed against PBS solution [10 mmol/L Na2HPO4; 10 mmol/L NaH2PO4; 0.15 mol/L NaCl; 1 mmol/L EDTA (pH 7.4)]. Then, tritium-labeled cholesterol (37 MBq) was dissolved in 95% ethanol, gradually added to the above-mentioned HDL3 fraction with stirring and incubated at 37° C. for 18 hr. [By this operation, tritium-labeled cholesterol was esterified by the action of lecithin cholesterol acyl transferase (LCAT) present on the HDL3 surface and taken up into HDL3 as tritium-labeled cholesteryl ester ([^3H]CE)]. After incubation, KBr was added, the mixture was adjusted to have a specific density d=1.21 g/mL, subjected to density gradient centrifugation (227,000×g, 4° C., 17 hr) and a fraction of specific density […] was harvested. The obtained fraction was dialyzed against the aforementioned PBS solution to give HDL3 incorporating [^3H]CE ([^3H]CE-HDL3, specific density: 1.125<d<1.21, specific activity: 22,000-33,000 dpm/μL), which was used as a donor lipoprotein.
The donor lipoprotein obtained above was added to the plasma of healthy subject to prepare a [^3H]CE-HDL3-containing plasma (2,000-4,000 dpm/μL). Compound A, Compound B, Compound C and Compound D were dissolved in dimethyl sulfoxide (DMSO). A solution of each compound in DMSO (1 μL) or DMSO (1 μL), and the [^3H]CE-HDL3-containing plasma (100 μL) were added into a microtube. On the other hand, the monoclonal antibody was diluted with physiological saline and added into a microtube together with a diluted solution (5 μL) of the monoclonal antibody or physiological saline (5 μL), and [^3H]CE-HDL3 containing plasma (95 μL). […] After ice-cooling, a remnant fraction was harvested using “RLP-cholesterol “JIMRO II”” (manufactured by Japan Immunoresearch Laboratories Co., Ltd.), and the radioactivity in the fraction was measured with a liquid scintillation counter. The difference in the measured values from incubation of solvent alone at 4° C. and 37° C. was taken as a 100% cholesteryl ester transfer activity, and the percent of decrease in the measured values of incubation at 37° C. with the addition of each compound or the antibody was taken as percent inhibition of cholesteryl ester transfer.

CETP = molecular target: T1, CETP (Homo sapiens, UniProt P11597); assay: CETP activity in [3H]CE-HDL3-containing plasma (radioactivity in HDL fraction); assay type: biochemical; settings: 37° C.
T1 construct: added to the plasma of healthy subject to prepare a [^3H]CE-HDL3-containing plasma; from tissue; host or cells: plasma of healthy subject
T1 sequence (P11597 18-493): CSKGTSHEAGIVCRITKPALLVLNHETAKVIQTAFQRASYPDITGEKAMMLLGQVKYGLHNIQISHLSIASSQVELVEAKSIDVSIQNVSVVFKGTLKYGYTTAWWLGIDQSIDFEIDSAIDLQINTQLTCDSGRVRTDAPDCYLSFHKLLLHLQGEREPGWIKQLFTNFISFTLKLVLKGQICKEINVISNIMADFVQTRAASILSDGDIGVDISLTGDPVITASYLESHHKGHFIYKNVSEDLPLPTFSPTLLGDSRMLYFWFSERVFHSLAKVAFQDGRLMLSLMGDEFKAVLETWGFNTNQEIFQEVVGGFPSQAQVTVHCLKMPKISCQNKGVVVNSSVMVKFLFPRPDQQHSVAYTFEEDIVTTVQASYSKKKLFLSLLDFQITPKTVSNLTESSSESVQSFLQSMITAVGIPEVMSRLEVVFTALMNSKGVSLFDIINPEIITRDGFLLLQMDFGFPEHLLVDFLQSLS
Protocol: as §1
The donor lipoprotein obtained above was added to the plasma of healthy subject to prepare a [^3H]CE-HDL3-containing plasma (2,000-4,000 dpm/μL). […] A solution of each compound in DMSO (1 μL) or DMSO (1 μL), and the [^3H]CE-HDL3-containing plasma (100 μL) were added into a microtube. On the other hand, the monoclonal antibody was diluted with physiological saline and added into a microtube together with a diluted solution (5 μL) of the monoclonal antibody or physiological saline (5 μL), and [^3H]CE-HDL3 containing plasma (95 μL). […] After ice-cooling, a remnant fraction was harvested using “RLP-cholesterol “JIMRO II”” (manufactured by Japan Immunoresearch Laboratories Co., Ltd.), and the radioactivity in the fraction was measured with a liquid scintillation counter. The difference in the measured values from incubation of solvent alone at 4° C. and 37° C. was taken as a 100% cholesteryl ester transfer activity, and the percent of decrease in the measured values of incubation at 37° C. with the addition of each compound or the antibody was taken as percent inhibition of cholesteryl ester transfer.
The CETP activity was measured according to the method shown below using a part of the same plasma after incubation. After ice-cooling, plasma (80 μL) was separated and a TBS solution [80 μL, 20 mmol/L Tris; 0.15 mol/L NaCl (pH 7.4)] containing 50 mmol/L magnesium chloride and 0.1% dextran sulfate was added to each microtube and thoroughly stirred. After standing at 4° C. for 30 min, the mixture was centrifuged (10,000×g, 4° C., 10 min.), and the radioactivity in the obtained supernatant (HDL fraction) was measured with a scintillation counter. The difference in the measured values from incubation of solvent alone at 4° C. and 37° C. was taken as a 100% CETP activity, and the percent of decrease in the measured values of incubation at 37° C. with the addition of each compound or the antibody was taken as percent inhibition of CETP activity. The above results are shown in the following.

SMILES	Inhibition (%) of remnant lipoprotein production ([1]; 0.1 μM, 4 hr) [%]	Inhibition (%) of remnant lipoprotein production ([1]; 0.3 μM, 4 hr) [%]	Inhibition (%) of remnant lipoprotein production ([1]; 1 μM, 4 hr) [%]	Inhibition (%) of cholesteryl ester transfer to remnant fraction ([2]; 0.1 μM, 4 hr) [%]	Inhibition (%) of cholesteryl ester transfer to remnant fraction ([2]; 0.3 μM, 4 hr) [%]	Inhibition (%) of cholesteryl ester transfer to remnant fraction ([2]; 1 μM, 4 hr) [%]	Inhibition (%) of remnant lipoprotein production ([1]; 0.01 μM, 4 hr) [%]	Inhibition (%) of remnant lipoprotein production ([1]; 0.03 μM, 4 hr) [%]	Inhibition (%) of cholesteryl ester transfer to remnant fraction ([2]; 0.01 μM, 4 hr) [%]	Inhibition (%) of cholesteryl ester transfer to remnant fraction ([2]; 0.03 μM, 4 hr) [%]	also measured
CCN(CC1CCCC1)c1cc2c(cc1CN(Cc1cc(C#N)cc(C(F)(F)F)c1)C(=O)OC)CCC2 [Compound C, methyl (3-cyano-5-trifluoromethylbenzyl)-[6-(N-cyclopentylmethyl-N-ethylamino)indan-5-ylmethyl]-carbamate]	21	34	41	−25	9	35					Inhibition (%) of remnant lipoprotein production ([1]; 3 μM, 4 hr): 93%; Inhibition (%) of cholesteryl ester transfer to remnant fraction ([2]; 3 μM, 4 hr): 92%; inhibition at 0.1 µM (CETP; 0.1 μM, 4 hr): 6%; inhibition at 0.3 µM (CETP; 0.3 μM, 4 hr): 12%; inhibition at 1 µM (CETP; 1 μM, 4 hr): 31%; inhibition at 3 µM (CETP; 3 μM, 4 hr): 57%
CCOC(=O)N1c2ccc(C(F)(F)F)cc2[C@@H](N(Cc2cc(C(F)(F)F)cc(C(F)(F)F)c2)C(=O)OC)C[C@H]1CC [Compound D, ethyl (2R,4S)-4-[[3,5-bis(trifluoromethyl)benzyl](methoxycarbonyl)amino]-2-ethyl-6-(trifluoromethyl)-3,4-dihydroquinoline-1(2H)-carboxylic acid ester]	44	59	62	54	78	94	38	32	12	28	
CCC(CC)CC1(C(=O)Nc2ccccc2SC(=O)C(C)C)CCCCC1 [Compound A, S-{2-([[1-(2-ethylbutyl)cyclohexyl]carbonyl]amino)phenyl}2-methylpropanethioate]											Inhibition (%) of remnant lipoprotein production ([1]; 3 μM, 6 hr): 25%; Inhibition (%) of remnant lipoprotein production ([1]; 10 μM, 6 hr): 54%; Inhibition (%) of remnant lipoprotein production ([1]; 30 μM, 6 hr): 77%; Inhibition (%) of cholesteryl ester transfer to remnant fraction ([2]; 3 μM, 6 hr): 21%; Inhibition (%) of cholesteryl ester transfer to remnant fraction ([2]; 10 μM, 6 hr): 29%; Inhibition (%) of cholesteryl ester transfer to remnant fraction ([2]; 30 μM, 6 hr): 92%; Inhibition (%) of CETP activity (CETP; 3 μM, 6 hr): 3%; Inhibition (%) of CETP activity (CETP; 10 μM, 6 hr): 34%; Inhibition (%) of CETP activity (CETP; 30 μM, 6 hr): 75%
CCN(C[C@H]1CC[C@H](CC(=O)O)CC1)c1cc(C)c(C(F)(F)F)cc1CN(Cc1cc(C(F)(F)F)cc(C(F)(F)F)c1)c1nnn(C)n1.CS(=O)(=O)O [Compound B, trans-(4-{[N-(2-{[N′-[3,5-bis(trifluoromethyl)benzyl]-N′-(2-methyl-2H-tetrazol-5-yl)amino]methyl}-5-methyl-4-trifluoromethylphenyl)-N-ethylamino]methyl}cyclohexyl)acetic acid methanesulfonate]	42	52	84	55	89	100	29	36	15	26	Inhibition (%) of CETP activity (CETP; 0.01 μM, 4 hr): 10%; Inhibition (%) of CETP activity (CETP; 0.03 μM, 4 hr): 25%; Inhibition (%) of CETP activity (CETP; 0.1 μM, 4 hr): 53%; Inhibition (%) of CETP activity (CETP; 0.3 μM, 4 hr): 74%; Inhibition (%) of CETP activity (CETP; 1 μM, 4 hr): 86%
